These results are taken from ChEMBL document CHEMBL1201862, “PubChem BioAssay data set” (2004).

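Compound exposure: 48 hours, 5 concentrations, 96-well plates. GI50: concentration for 50% inhibition of growth.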 Calls of active or inactive are those of the source. No stated cut-off is given here; in the data, active = GI50 up to about 1.1 µM and inactive = higher. Some results are limits rather than exact numbers.

What all share (assay): DTP human tumour cell line panel, 48 h
In assay [1] the test system is MCF7.
Assay [2] deals with IGROV-1.
In assay [3] the test system is OVCAR-8.
Assay [4] deals with HCC 2998.
The test system of assay [5] is SK-OV-3.
The subject of assay [6] is OVCAR-4.
Assay [7] relates to HT-29.
Assay [8] relates to RPMI-8226.
Assay [9] concerns HOP-62.
Assay [10] relates to HCT-116.
For assay [11], the system named is EKVX.
Assay [12] concerns M14.
The test system of assay [13] is NCI-H226.
Assay [14] has as its system OVCAR-5.
Assay [15] deals with 786-0.
The test system of assay [16] is Hs-578T.
The subject of assay [17] is LOX IMVI.
In assay [18] the test system is MDA-N.
The subject of assay [19] is NCI-H522.
Assay [20] deals with CAKI-1.

Regarding `COc1cc(C2SCC(=O)N2NC(=O)c2ccc(NC(C)=O)cc2)cc(OC)c1OC` (centres undefined), the GI50 in assay [1], in [2], in [3], in assay [4], in assay [5] and in [6] was > 100 µM (inactive) in each case. Moreover, the GI50 in assay [7], in assay [8], in assay [9], in [10], in assay [11] and in assay [12] was > 100 µM (inactive) throughout. Further, the GI50 in assay [13], in assay [14], in [15] and in assay [16] was > 100 µM (inactive) each time.
For the molecule `NCCCN1CCN(c2ccccc2)CC1`, the GI50 in assay [1], in [2], in assay [3], in assay [6], in assay [17] and in assay [18] was > 100 µM (inactive) throughout. Besides, the GI50 (usually the concentration that inhibits growth by half) in assay [7] was 95.1 µM (inactive); in assay [8], > 100 µM (inactive); in [9], 10.9 µM (inactive); in [10], > 100 µM (inactive); in assay [11], > 100 µM (inactive); in assay [12] it was 35.3 µM (inactive). Further, the GI50 is > 100 µM (inactive) in [13]; 73.6 µM (inactive) in assay [19]; > 100 µM (inactive) in assay [14]; > 100 µM (inactive) in assay [15]; > 100 µM (inactive) in [16]; > 100 µM (inactive) in [20].
As for `COC(=O)Nc1cc(OCCCOC(C)=O)c2[nH]c(C(=O)OC)cc2c1C[C@H](O)CO`, the GI50 was > 100 µM (inactive) in [1]; 90.4 µM (inactive) in assay [2]; > 100 µM (inactive) in assay [3]; > 100 µM (inactive) in assay [4]; > 100 µM (inactive) in [5]; > 100 µM (inactive) in assay [6]. Besides, the GI50 in assay [17], in [18], in [7], in assay [8], in assay [9] and in assay [10] was > 100 µM (inactive) throughout. The GI50 in assay [11] was 72.1 µM (inactive); in assay [12], > 100 µM (inactive); in assay [13], > 100 µM (inactive); in assay [19], 2.94 µM (inactive); in assay [14] it was > 100 µM (inactive); in [15], > 100 µM (inactive). The GI50 in [20] is > 100 µM (inactive).
As to `c1ccc(C(CCN2CC3CCC(CC3)C2)c2ccccc2)cc1`, the GI50 in assay [1] is 15.6 µM (inactive); in [2], 31 µM (inactive); in [3], 28.6 µM (inactive); in assay [6], 38.7 µM (inactive); in [17] it was 16.9 µM (inactive); in [18], 23 µM (inactive). For the same molecule, the GI50 in [7] was 13.9 µM (inactive); in assay [8], 16.8 µM (inactive); in assay [9] it was 27.5 µM (inactive); in assay [10], 20.1 µM (inactive); in assay [11], 37.8 µM (inactive); in [12], 14.3 µM (inactive). For the same molecule, the GI50 in [13] is 19.6 µM (inactive); in assay [19], 16.6 µM (inactive); in assay [14], 20.1 µM (inactive); in [15] it was 17.3 µM (inactive); in [16], 24 µM (inactive); in assay [20] it was 37.9 µM (inactive).
For `COC(=O)C1(C(=O)OC)CC2=C(S(=O)(=O)c3ccccc3)C[C@@H](C#N)[C@H]2C1`, the GI50 in assay [1] is 47.5 µM (inactive); in [2], 52 µM (inactive); in assay [3], > 100 µM (inactive); in assay [4] it was 16 µM (inactive); in assay [5] it was > 100 µM (inactive); in assay [6], > 100 µM (inactive). Further, the GI50 in assay [17], in assay [18], in assay [7], in assay [9], in assay [10] and in [11] was > 100 µM (inactive) in each case. Moreover, the GI50 in assay [12] is > 100 µM (inactive); in assay [13], > 100 µM (inactive); in [19], 43.7 µM (inactive); in [14], > 100 µM (inactive); in [15] it was > 100 µM (inactive); in assay [20] it was > 100 µM (inactive).
Consider `COc1ccc2c(c1)CC[C@@H]1[C@@H]2CC[C@]2(C)C(=O)/C(=C/c3ccc(C#N)cc3)C[C@@H]12`, for which the GI50 in assay [1] is > 100 µM (inactive); in assay [2] it was > 100 µM (inactive); in assay [3], > 100 µM (inactive); in assay [4], > 100 µM (inactive); in [5], > 100 µM (inactive); in assay [6], 77.1 µM (inactive). Besides, the GI50 was > 100 µM (inactive) in assay [17]; > 100 µM (inactive) in assay [18]; > 100 µM (inactive) in assay [8]; 97.1 µM (inactive) in [9]; > 100 µM (inactive) in assay [10]; > 100 µM (inactive) in [11]. Besides, the GI50 in assay [12], in assay [13], in [19], in assay [14], in [15] and in [20] was > 100 µM (inactive) each time.
For `O=C1/C(=C/c2cccc3ccccc23)Cc2ccccc21`, the GI50 in assay [1] is 5.93 µM (inactive); in [2], 41.4 µM (inactive); in [3], 53.8 µM (inactive); in assay [4], 15.5 µM (inactive); in assay [5], 18.6 µM (inactive); in [6], 22.3 µM (inactive). For the same molecule, the GI50 is 34.4 µM (inactive) in assay [17]; 32.7 µM (inactive) in assay [7]; 51.9 µM (inactive) in assay [8]; 26.3 µM (inactive) in assay [11]; 59.2 µM (inactive) in [12]; 10.5 µM (inactive) in assay [13]. Also, the GI50 is 29.2 µM (inactive) in assay [14], 20.4 µM (inactive) in assay [15], 22 µM (inactive) in assay [16] and 25.6 µM (inactive) in assay [20].
For `Nc1ncc(Cc2nn3c(COc4ccc(Cl)cc4)nnc3s2)s1`, the GI50 in [1], in [2], in assay [3], in assay [4], in [5] and in [6] was > 100 µM (inactive) in each case. For the same molecule, the GI50 in assay [7], in assay [8], in assay [9], in assay [10], in [11] and in assay [12] was > 100 µM (inactive) throughout. The GI50 in [13], in [19], in assay [14], in assay [15], in [16] and in [20] was > 100 µM (inactive) in each case.
As to `Cc1n[nH]c(=O)n1/N=C/c1c[nH]c2ccccc12`, the GI50 in assay [1] was > 100 µM (inactive); in assay [2], 35.2 µM (inactive); in assay [3], > 100 µM (inactive); in assay [4], > 100 µM (inactive); in [5], > 100 µM (inactive); in [6], > 100 µM (inactive). Also, the GI50 was > 100 µM (inactive) in assay [8]; > 100 µM (inactive) in [9]; > 100 µM (inactive) in assay [10]; 50.7 µM (inactive) in [11]; > 100 µM (inactive) in assay [12]; > 100 µM (inactive) in assay [19]. For the same molecule, the GI50 is 83.4 µM (inactive) in [14], > 100 µM (inactive) in [15] and > 100 µM (inactive) in [20].
Consider `O=C1CC(c2ccc(O)cc2)C2(O1)C(=O)OC(C(O)CO)C2O` (centres undefined), for which the GI50 in assay [1], in assay [2], in assay [3], in assay [5], in assay [17] and in assay [7] was > 100 µM (inactive) each time. For the same molecule, the GI50 in [8], in assay [9], in assay [10], in assay [11], in assay [12] and in assay [13] was > 100 µM (inactive) each time. Besides, the GI50 in [14], in [15], in [16] and in [20] was > 100 µM (inactive) throughout.
In the case of `CC(=O)Oc1ccc(-c2c(OC(C)=O)c(OC(C)=O)c(-c3ccc(OC(C)=O)c(OC(C)=O)c3)c(OC(C)=O)c2OC(C)=O)cc1`, the GI50 in assay [1] is 23.7 µM (inactive); in assay [2], 15.5 µM (inactive); in assay [3] it was 14.6 µM (inactive); in [5], 22.3 µM (inactive); in assay [6] it was 17.6 µM (inactive); in [17], 16.1 µM (inactive). The GI50 in assay [18] is 16.9 µM (inactive); in assay [7], 18.2 µM (inactive); in assay [8] it was 16.3 µM (inactive); in assay [10] it was 18.8 µM (inactive); in [11], 0.553 µM (active); in [12], 18.1 µM (inactive). For the same molecule, the GI50 in [13] was 17.9 µM (inactive); in assay [19] it was 5.46 µM (inactive); in assay [14] it was 12.5 µM (inactive); in assay [15] it was 16.1 µM (inactive); in assay [20], 21.3 µM (inactive).
